# Patent US20230114728A1 (Venatorx Pharmaceuticals, Inc., priority 2019, published 2023)
# Assays:
# E. coli K12 PBP3 = target: T1, E. coli K12 PBP3 (Escherichia coli, UniProt P0AD68); assay: biochemical; assay type: binding
# T1 construct: made in house
# How it was run: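 Fluorescence polarization (ex 490/em 520 nm) competition of inhibitors against Bocillin-FL at 0.1 μM, read up to 60 min. Final PBP levels: E. coli PBP3 1.5 μM; A. baumannii PBP2 2.5 μM, PBP3 0.2 μM in Tris pH 8.0/NaCl/glycerol/Tween 20; N. gonorrhoeae PBP2 […] in Hepes pH 8.0/NaCl/glycerol. EC50 = concentration halving PBP-bound Bocillin-FL.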
# P. aeruginosa PBP3 = target: T2, P. aeruginosa PBP3 (Pseudomonas aeruginosa, UniProt G3XD46); assay: Bocillin-FL fluorescence polarization competition binding assay, P. aeruginosa PBP3; settings: fluorescence polarization competition binding assay using Bocillin-FL
# T2 construct: made in house
# T2 sequence (G3XD46 whole entry): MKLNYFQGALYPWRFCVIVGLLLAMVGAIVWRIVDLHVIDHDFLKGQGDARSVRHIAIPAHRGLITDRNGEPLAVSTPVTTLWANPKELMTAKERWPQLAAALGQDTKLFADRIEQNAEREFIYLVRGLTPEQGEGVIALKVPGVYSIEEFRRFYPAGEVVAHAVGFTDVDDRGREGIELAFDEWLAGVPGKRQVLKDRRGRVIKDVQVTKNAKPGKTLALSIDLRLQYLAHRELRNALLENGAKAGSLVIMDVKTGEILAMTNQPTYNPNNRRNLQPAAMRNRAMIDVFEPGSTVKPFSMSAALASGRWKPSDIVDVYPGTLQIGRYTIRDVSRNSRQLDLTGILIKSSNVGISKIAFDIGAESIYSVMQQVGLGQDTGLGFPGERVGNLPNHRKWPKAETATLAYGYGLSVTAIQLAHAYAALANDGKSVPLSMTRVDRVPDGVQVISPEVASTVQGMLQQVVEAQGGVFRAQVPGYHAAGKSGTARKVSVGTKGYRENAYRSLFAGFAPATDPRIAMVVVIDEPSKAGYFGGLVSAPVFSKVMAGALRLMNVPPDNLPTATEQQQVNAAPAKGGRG
# How it was run: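 Binding of boronic acid inhibitors to purified Pseudomonas aeruginosa (PA01) PBP3 was measured by fluorescence polarization competition with Bocillin-FL, a fluorescent penicillin V. Reactions of 80 μl contained 0.75 μM PBP3 and 0.1 μM Bocillin-FL in 50 mM Hepes (pH 8.0), 300 mM NaCl and 5% (v/v) glycerol, in black 384-well plates. FP (Excitation 490 nm, Emission 520 nm) was read for up to 60 minutes. EC50 is the concentration that halves PBP-bound Bocillin-FL.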
# A. baumannii ATCC 19606 = assay: Broth microdilution MIC in CAMHB; assay type: cell-based; settings: Acinetobacter baumannii, ATCC19606; MHB; read-out: Minimum Inhibitory Concentration, A. baumannii ATCC 19606
# How it was run: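 Hyper-permeable or efflux-deficient strains serve to probe outer-membrane penetration. Growth inhibition is scored visually after 16-20 h at 37° C in CAMHB, starting from 2-8×10^5 CFU/mL.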
# E. coli 901C = assay: Broth microdilution MIC in CAMHB; assay type: cell-based; settings: Escherichia coli; E. coli 901C (hyper-permeable); MHB; read-out: Minimum Inhibitory Concentration, E. coli 901C
# How it was run: (§1)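 Colonies from cation-adjusted Mueller Hinton agar are grown in broth (3-5 h, 37° C), adjusted by OD600, and added at 2-8×10^5 CFU/mL to 2-fold compound dilutions. After 16-20 h at 37° C, the lowest concentration without growth is taken as MIC.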
# E. coli AG100 = assay: Broth microdilution MIC in CAMHB; assay type: cell-based; settings: Escherichia coli; E. coli AG100 (wild-type parent); MHB; read-out: Minimum Inhibitory Concentration, E. coli AG100
# How it was run: as §1
# [1] = tested on: K. pneumoniae 848844 producing SHV-11 and KPC-2; assay: Broth microdilution MIC in CAMHB; assay type: cell-based; settings: Klebsiella pneumoniae, read-out: Minimum Inhibitory Concentration, K. pneumoniae 848844
# How it was run: as §1
# [2] = tested on: K. pneumoniae UMM producing SHV-5 and KPC-2; assay: Broth microdilution MIC in CAMHB; assay type: cell-based; settings: Klebsiella pneumoniae, read-out: Minimum Inhibitory Concentration, K. pneumoniae UMM
# How it was run: as §1
# [3] = tested on: P. aeruginosa (ΔmexAB-oprM); assay: Broth microdilution MIC in CAMHB; assay type: cell-based; settings: Pseudomonas aeruginosa, read-out: Minimum Inhibitory Concentration, P. aeruginosa ΔmexAB-OprM
# How it was run: as §1
# P. aeruginosa ATCC 27853 = assay: Broth microdilution MIC in CAMHB; assay type: cell-based; settings: Pseudomonas aeruginosa, ATCC27853; MHB; read-out: Minimum Inhibitory Concentration, P. aeruginosa ATCC 27853
# How it was run: as §1
# T1 sequence (P0AD68 1-577): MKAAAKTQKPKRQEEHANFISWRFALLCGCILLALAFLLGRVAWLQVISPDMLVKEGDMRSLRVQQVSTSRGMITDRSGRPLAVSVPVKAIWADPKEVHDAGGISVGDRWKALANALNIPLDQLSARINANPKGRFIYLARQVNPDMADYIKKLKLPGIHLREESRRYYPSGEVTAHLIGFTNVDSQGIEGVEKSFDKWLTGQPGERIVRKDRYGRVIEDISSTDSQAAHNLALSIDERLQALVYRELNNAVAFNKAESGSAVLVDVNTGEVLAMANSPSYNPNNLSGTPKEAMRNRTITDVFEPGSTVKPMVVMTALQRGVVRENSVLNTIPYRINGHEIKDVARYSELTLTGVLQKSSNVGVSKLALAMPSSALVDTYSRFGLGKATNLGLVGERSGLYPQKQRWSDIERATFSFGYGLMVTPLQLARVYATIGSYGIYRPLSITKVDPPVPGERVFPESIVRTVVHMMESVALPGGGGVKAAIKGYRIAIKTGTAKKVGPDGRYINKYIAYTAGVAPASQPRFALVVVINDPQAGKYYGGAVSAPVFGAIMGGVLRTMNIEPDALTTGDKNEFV
Compound,EC50 (E. coli K12 PBP3) [µM],P. aeruginosa PBP3 Potency (P. aeruginosa PBP3),MIC (A. baumannii ATCC 19606) [µg/mL],MIC (E. coli 901C) [µg/mL],MIC (E. coli AG100) [µg/mL],MIC [1] [µg/mL],MIC [2] [µg/mL],MIC [3] [µg/mL],MIC (P. aeruginosa ATCC 27853) [µg/mL]
"NCCN1CCN(C(=O)NC(C(=O)N[C@H]2Cc3cccc(C(=O)O)c3OB2O)c2cc(F)c(O)c(Cl)c2)C(=O)C1=O (stereo partly drawn) [Example 163, (3R)-3-(2-(4-(2-aminoethyl)-2,3-dioxopiperazine-1-carboxamido)-2-(3-chloro-5-fluoro-4-hydroxyphenyl)acetamido)-2-hydroxy-3,4-dihydro-2H-benzo[e][1,2]oxaborinine-8-carboxylic acid]",< 30,D (D represents a potency <10 μM),> 128,0.5 to 1,32 to 64,> 128,32 to 64,2 to 4,32 to 64
"CCN1CCN(C(=O)N[C@H](C(=O)N[C@H]2Cc3cccc(C(=O)O)c3OB2O)c2ccc(C(=O)O)cc2O)C(=O)C1=O (single isomer, unassigned) [Example 143]",< 30,B (B represents a potency between 30 μM and 500 μM inclusive),> 128,0.5 to 1,> 128,> 128,> 128,> 128,> 128
"CCN1CCN(C(=O)NC(C(=O)N[C@H]2Cc3cccc(C(=O)O)c3OB2O)c2cc(F)c(O)c(F)c2)C(=O)C1=O (stereo partly drawn) [Example 160, (3R)-3-(2-(3,5-difluoro-4-hydroxyphenyl)-2-(4-ethyl-2,3-dioxopiperazine-1-carboxamido)acetamido)-2-hydroxy-3,4-dihydro-2H-benzo[e][1,2]oxaborinine-8-carboxylic acid]",< 30,D (D represents a potency <10 μM),> 128,< 0.25,32 to 64,32 to 64,32 to 64,2 to 4,> 128
"CCN1CCN(C(=O)NC(C(=O)N[C@H]2Cc3cccc(C(=O)O)c3OB2O)c2c(F)cc(NS(N)(=O)=O)cc2F)C(=O)C1=O (stereo partly drawn) [Example 176, (3R)-3-(2-(2,6-difluoro-4-(sulfamoylamino)phenyl)-2-(4-ethyl-2,3-dioxopiperazine-1-carboxamido)acetamido)-2-hydroxy-3,4-dihydro-2H-benzo[e][1,2]oxaborinine-8-carboxylic acid]",< 30,D (D represents a potency <10 μM),> 128,< 0.25,32 to 64,> 128,32 to 64,32 to 64,> 128
"NCCN1CCN(C(=O)N[C@H](C(=O)N[C@H]2Cc3cccc(C(=O)O)c3OB2O)c2ccc(O)c(F)c2F)C(=O)C1=O (single isomer, unassigned) [Example 169]",30 to 500,C (C represents a potency between 10 and 30 μM),> 128,2 to 4,32 to 64,> 128,> 128,32 to 64,> 128
"CCN1CCN(C(=O)N[C@H](C(=O)N[C@H]2Cc3cccc(C(=O)O)c3OB2O)c2ccc(C(=O)O)cc2Cl)C(=O)C1=O (single isomer, unassigned) [Example 152]",30 to 500,D (D represents a potency <10 μM),> 128,0.5 to 1,> 128,> 128,> 128,32 to 64,> 128
"NS(=O)(=O)Nc1cccc(C(NC(=O)N2CCN(CCF)C(=O)C2=O)C(=O)N[C@H]2Cc3cccc(C(=O)O)c3OB2O)c1 (stereo partly drawn) [Example 116, (3R)-3-(2-(4-(2-fluoroethyl)-2,3-dioxopiperazine-1-carboxamido)-2-(3-(sulfamoylamino)phenyl)acetamido)-2-hydroxy-3,4-dihydro-2H-benzo[e][1,2]oxaborinine-8-carboxylic acid]",< 30,D (D represents a potency <10 μM),> 128,< 0.25,8 to 16,> 128,32 to 64,8 to 16,> 128
